Values of other authors in EP3520802A1, “PROCESS FOR EXTRACTING CURCUMINOIDS” (EFESON - Chemical Research & Engineering Development, priority 2018, dated 2019).

Conditions: non-clustered curcuminoid, usual value stated as background

With `COc1cc(/C=C/C(=O)CC(=O)/C=C/c2ccc(O)c(OC)c2)ccc1O` [Curcumin I, curcumin] as the compound, how does the logP read?
Its logP is “around 2.90”.
